Consider 34 compounds from patent EP3964206A1, “COMPOUNDS FOR THE TREATMENT OF COVID-19” (priority 2020, dated 2022).

Each structure is given as a SMILES string. Counter-ions that a name gives are not always drawn.

The subject of this assay is SARS-CoV-2. Briefly: microbe, parasite or virus in culture. It is filed as cell-based. The conditions noted are these: Severe acute respiratory syndrome coronavirus 2, 120 h; for Emax: read-out: Maximum confluence reached (%).

For the compound `Cc1ccc(C(=O)Nc2cccc(C(F)(F)F)c2)cc1Nc1nc(-c2cccnc2)nc2c1cnn2C` [Compound 62, 4-methyl-3-{[1-methyl-6-(3-pyridinyl)-1H-pyrazolo[3,4-d]pyrimidin-4-yl]amino}-N-[3-(trifluoromethyl)phenyl]benzamide], the Emax is 88.4%.

Regarding `Cn1nc(C(C)(C)C)cc1C(=O)N[C@@H](Cc1cccc(Cl)c1)C(=O)NCC#N` [Compound 63, 3-tert-butyl-N-{(1S)-1-(3-chlorobenzyl)-2-[(cyanomethyl)amino]-2-oxoethyl}-1-methyl-1H-pyrazole-5-carboxamide], the Emax worked out at 96.2%. Same read-out and setting: the value for `N#Cc1cccc(C#N)c1-c1nc2c3ccc(Cl)cc3c3ccccc3c2[nH]1` [Compound 64, 2-(6-Chloro-1H-phenanthro[9,10-d]imidazol-2-yl)benzene-1,3-dicarbonitrile] was 98.5%. For the compound `CCCCOCCOc1ccc(-c2ccc3c(c2)C=C(C(=O)Nc2ccc([S@@+]([O-])Cc4cncn4CCC)cc2)CCCN3CC(C)C)cc1` [Compound 65, (-)-(S)-8-[4-(2-Butoxyethoxy)phenyl]-1-isobutyl-N-[4-(1-propyl-1H-imidazol-5-ylmethylsulfinyl)phenyl]-1,2,3,4-tetrahydro-1-benzazocine-5-carboxamide], the IC50 was determined as 55 µM and the Emax was determined as 70.9%. `CC(C)(C)c1cc(C=C(C#N)C#N)cc(C(C)(C)C)c1O` [Compound 66, (3,5-Di-tert-butyl-4-hydroxybenzylidene)malononitrile]: the Emax was determined as 47.6%. `O=C(C1CC1)N1CC[C@@H](Cc2n[nH]c(=O)n2-c2ccc(-c3ccc4ccoc4c3)cc2)C1` [Compound 67, 4-[4-(1-Benzofuran-6-yl)phenyl]-5-[1-(cyclopropylcarbonyl)pyrrolidin-3(S)-ylmethyl]-3,4-dihydro-2H-1,2,4-triazol-3-one]: half-maximal inhibition (IC50) was put at 17 µM and the Emax was 31.1%. As to `COc1cc2ncnc(Nc3cccc(Br)c3)c2cc1OC` [Compound 68, 4-(3-Bromophenylamino)-6,7-dimethoxyquinazoline], the Emax turned out to be 54.5%. For `O=c1cc(N2CCOCC2)oc2c(-c3cccc4c3sc3ccccc34)cccc12` [Compound 69, 8-(Dibenzo[b,d]thien-4-yl)-2-(4-morpholinyl)-4H-1-benzopyran-4-one], the Emax turned out to be 90.5%. Regarding `Cn1c(Nc2ccc(C(F)(F)F)cc2)nc2cc(Oc3ccnc(-c4nc(C(F)(F)F)c[nH]4)c3)ccc21` [Compound 70, 1-Methyl-N-[4-(trifluoromethyl)phenyl]-5-[2-[4-(trifluoromethyl)-1H-imidazol-2-yl]pyridin-4-yloxy]-1H-benzimidazol-2-amine], the Emax was determined as 44.1%. `O=C(O)Cc1cccc(OCCCN(Cc2cccc(C(F)(F)F)c2Cl)CC(c2ccccc2)c2ccccc2)c1` [Compound 71, 2-[3-[3-[N-[2-Chloro-3-(trifluoromethyl)benzyl]-N-(2,2-diphenylethyl)amino]propoxy]phenyl]acetic acid]: the Emax was 38%. For the compound `O=C(Nc1ccc(Cl)c(Cl)c1)Nc1ccc(Cl)c(Cl)c1` [Compound 72, 1,3-Bis(3,4-dichlorophenyl)urea], the Emax was determined as 45.9%. The same measure, in the same setting: the value for `O=[N+]([O-])c1ccc(N/N=C/c2sc(N3CCOCC3)nc2-c2ccccc2)c(S(=O)(=O)Nc2ccccc2Cl)c1` [Compound 73, N-(2-chlorophenyl)-2-[(2E)-2-[(2-morpholin-4-yl-4-phenyl-1,3-thiazol-5-yl)methylidene]hydrazinyl]-5-nitrobenzenesulfonamide] was 53.9%; that for `Nc1ncnc2c1ncn2[C@@H]1CC[C@@H](O)[C@H]1O` [Compound 74, (1R,2S,3R)-9-(2,3-Dihydroxycyclopentyl)adenine] was 38%.

For the compound `CC(C)(C)C(=O)C(=Cc1cccc([N+](=O)[O-])c1)n1cncn1` [Compound 76, 4,4-dimethyl-1-(3-nitrophenyl)-2-(1H-1,2,4-triazol-1-yl)-1-penten-3-one], 4.33 µM corresponded to half-maximal inhibition (IC50) and the Emax is 50.4%. Consider `OCCNC1CCCc2c1[nH]c1ccc(-c3ccccc3)cc21` (stereo not drawn) [Compound 77, 2-[(6-Phenyl-2,3,4,9-tetrahydro-1H-carbazol-1-yl)amino]ethanol], for which the Emax came to 50.8%. Still for that read-out and setting: for `CC(C)COCC(CN(Cc1ccccc1)c1ccccc1)N1CCCC1` (stereo not drawn) [Compound 78, 1-[1-(N-Benzylanilino)-3-isobutoxy-2-propyl]pyrrolidine monohydrochloride monohydrate] the value was 30.4%. The same measure, in the same setting: the value for `COc1ccc2cc1Oc1ccc(cc1)C[C@H]1c3cc(c(OC)cc3CCN1C)Oc1c(OC)c(OC)cc3c1[C@H](C2)N(C)CC3` [Compound 79, (1beta)-(S,S)-6,6',7,12-Tetramethoxy-2,2'-dimethylberbaman] was 99.6%. On the same count and under the same terms, for `CCN(CC)CCO[C@H]1CC[C@@]2(C)C(=CC[C@@H]3[C@@H]2CC[C@]2(C)C(=O)CC[C@@H]32)C1` [Compound 80, 3beta-[2-(Diethylamino)ethoxy]androst-5-en-17-one hydrochloride] the value was 44.7%.

Consider `O=C(c1c2ccccc2cc2ccccc12)N1CCC(N2CCC[C@@H](C(=O)N3CCOCC3)C2)CC1` [Compound 81, 1-[1'-(Anthracen-9-ylcarbonyl)-1,4'-bipiperidin-3(R)-yl]-1-(4-morpholinyl)methanone], for which the Emax stood at 51%. Still for that read-out and setting: for `CCN(CC)CCOc1ccc(C(=C(Cl)c2ccccc2)c2ccccc2)cc1` [Compound 82, 2-[4-(2-Chloro-1,2-diphenylvinyl)phenoxy]-N,N-diethylethanamine citrate] the value was 54.7%. Still for that read-out and setting: the value for `Cn1cc(-c2ccncc2)c(-c2ccc(OCc3ccc4ccccc4n3)cc2)n1` [Compound 83, 2-[4-[1-Methyl-4-(4-pyridyl)-1H-pyrazol-3-yl]phenoxymethyl]quinoline succinate] was 36.7%; that for `CCN(CC)CCOc1ccc2c(c1)C(=O)c1cc(OCCN(CC)CC)ccc1-2` [Compound 84, 2,7-Bis[2-(diethylamino)ethoxy]-9H-fluoren-9-one] was 68.9%; that for `Cc1cccc(Nc2nc(-c3ccncc3)cs2)c1` [Compound 85, N-(3-Methylphenyl)-4-(4-pyridyl)thiazol-2-amine] was 47.8%.

As for `O=S(=O)(NCC1CC1)c1ccc(Nc2nccc(N3CCCc4cc(O)ccc43)n2)cc1` [Compound 86, N-(Cyclopropylmethyl)-4-[[4-(3,4-dihydro-6-hydroxy-1(2H)-quinolinyl)-2-pyrimidinyl]amino]benzenesulfonamide], the Emax was 55%. Still for that read-out and setting: the value for `CC(C)N1CCN(c2ccc(C(=O)c3c(-c4ccc(O)cc4)sc4cc(O)ccc34)cc2)CC1` [Compound 87, 1-[6-Hydroxy-2-(4-hydroxyphenyl)-1-benzothien-3-yl]-1-[4-(4-isopropylpiperazin-1-yl)phenyl]methanone] was 41%. For the compound `CCCc1c(-c2ccc(O)cc2)nn(-c2ccc(O)cc2)c1-c1ccc(O)cc1` [Compound 88, 1,3,5-Tris(4-hydroxyphenyl)-4-propyl-1H-pyrazole], it took 8.3 µM to reach half-maximal inhibition (IC50) and the Emax worked out at 48.2%. Turning to `CN(C)CCC=C1c2ccccc2C=Cc2ccccc21` [Compound 90, 3-(5H-Dibenzo[a,d]cyclohepten-5-ylidene)-N,N-dimethylpropan-1-amine hydrochloride], inhibition was half-maximal at 12.1 µM (IC50) and the Emax was 70.2%.

For the compound `CCC(=C(c1ccc(O)cc1)c1ccc(OCCNC)cc1)c1ccccc1` [Compound 91, 4-[1-[4-[2-(Methylamino)ethoxy]phenyl]-2-phenyl-1-butenyl]phenol hydrochloride], the IC50 came to 6.34 µM and the Emax came out at 35.7%. As for `Cc1ccc(NC(=O)Nc2cc(C(F)(F)F)ccc2F)cc1Nc1ccc2c(c1)NC(=O)C2=Cc1ccc[nH]1` [Compound 92, 1-[2-Fluoro-5-(trifluoromethyl)phenyl]-3-[4-methyl-3-[2-oxo-3-(1H-pyrrol-2-ylmethylene)-2,3-dihydro-1H-indol-6-ylamino]phenyl]urea], the IC50 stood at 5.23 µM and the Emax came to 75.5%. With `CC[C@@H](C(=O)[C@@H](C)[C@@H](O)[C@H](C)[C@@H]1O[C@@H]([C@@H](CC)C(=O)O)CC[C@@H]1C)[C@H]1O[C@]2(C=C[C@@H](O)[C@]3(CC[C@@](C)([C@H]4CC[C@](O)(CC)[C@H](C)O4)O3)O2)[C@H](C)C[C@@H]1C` [Compound 93, 2(R)-[6(R)-[5(R)-[(2S,5S,7R,9S,10S,12R,15R)-2-[5(R)-Ethyl-5-hydroxy-6(S)-methyltetrahydropyran-2(R)-yl]-15-hydroxy-2,10,12-trimethyl-1,6,8-trioxadispiro[4.1.5.3]pentadec-13-en-9-yl]-2(S)-hydroxy-1(S),3(S)-dimethyl-4-oxoheptyl]-5(S)-methyltetrahydropyran-2(R)-yl]butyric acid], the Emax worked out at 34.4%. Same read-out and setting: for `CN1CCN(CCCN2c3ccccc3Sc3ccc(C(F)(F)F)cc32)CC1` [Compound 94, 10-[3-(4-Methylpiperazin-1-yl)propyl]-2-(trifluoromethyl)-10H-phenothiazine dihydrochloride] the value was 38%; for `COc1cc2c(NC3CCN(C(C)C)CC3)nc(N3CCC(F)(F)CC3)nc2cc1OCCCN1CCCC1` [Compound 95, 2-(4,4-Difluoropiperidin-1-yl)-6-methoxy-N-[1-(propan-2-yl)piperidin-4-yl]-7-[3-(pyrrolidin-1-yl)propoxy]quinazolin-4-amine], 31.1%. Turning to `CC(C)C(=O)OCC(=O)[C@@]12O[C@H](C3CCCCC3)O[C@@H]1C[C@H]1[C@@H]3CCC4=CC(=O)C=C[C@]4(C)[C@H]3[C@@H](O)C[C@@]12C` [Compound 96, 16alpha,17alpha-[(R)-Cyclohexylmethylenedioxy]-11beta-hydroxy-21-(isobutyryloxy)pregna-1,4-dien-3-one], it took 47 µM to reach half-maximal inhibition (IC50) and the Emax was 35.2%. As to `Nc1nc(NC[C@H]2CC[C@H](CNS(=O)(=O)c3cccc4ccccc34)CC2)nc2ccccc12` [Compound 97, N-[[trans-4-[[(4-Amino-2-quinazolinyl)amino]methyl]cyclohexyl]methyl]-1-naphthalenesulfonamide], the Emax came out at 39.2%.
